# Test results: patent publication US8008487B2, “Substituted thieno[2,3-D]pyrimidines as fungicides” (priority 2004, dated 2011)
# What was measured:
# Format in all cases: in vivo
# Cochliobolus sativus = assay: Spot Blotch of Wheat (COCHSA), whole-plant fungicide test; details: Bipolaris sorokiniana, foliar, 24 h, 200 ppm on foliage, one-day protectant test, read-out: COCHSA percent control of disease
# Protocol: The activity of the compounds as effective fungicides was determined by applying the compounds to plants and observing control of fungal disease. The compounds were formulated at 200 ppm in 10 vol. percent acetone plus 90 vol. percent Triton X water (deionized water 99.99 wt. percent+0.01 wt. percent Triton X100), giving a “formulated test compound.” In a few cases, compounds were formulated at 100, 75 or 8.3 ppm rather than 200 ppm in 10 vol. percent acetone plus 90 vol. percent Triton X water (deionized water 99.99 wt. percent+0.01 wt. percent Triton X100), giving a ‘formulated test compound’. The compounds were tested for ability to control plant diseases in a 1-day protectant test (1DP) or a 2-day curative test (2DC). Formulated test compounds were applied to plants using a turn table sprayer fitted with two opposing air atomization nozzles which delivered approximately 1500 L/ha of spray volume. Plants were inoculated with spores of the fungus the next day (1DP), then incubated in an environment conducive to disease development. In a few cases, the compounds were tested for ability to control plant disease in a two-day curative test. Plants were inoculated with spores of the fungus two days prior to compound application, and incubated in an environment conducive to disease development both before and after compound application (2DC). For all types of tests, disease severity was evaluated 4 to 28 days later, depending on the speed of disease development.
# Each pot contained 3-8 seedlings. These plants were sprayed until wet with the formulated test compound. On the following day, the leaves were inoculated with an aqueous spore suspension of Cochliobolus sativus and the plants were kept in high humidity for one to two days to permit spores to germinate and infect the leaf. The plants were then transferred to a greenhouse until disease developed on untreated control plants.
# The following table presents the activity of typical compounds of the present invention when evaluated in these experiments. The effectiveness of the test compounds in controlling disease was determined by assessing the severity of disease on treated plants, then converting the severity to percent control based on the level of disease on untreated, inoculated plants.
# TABLE 4: Activity of compounds as fungicides. Data are the level at which the given disease was controlled when the given compound was applied to the foliage of the plant at 200 ppm. In a few cases (noted in the table) the compound was applied to the plant at 100, 75 or 8.3 ppm. The plant was inoculated with the fungus one day after treatment. In a few cases (noted in the table) the plant was inoculated with the fungus two days before treatment.
# Leptosphaeria nodorum = assay: Glume Blotch of Wheat (LEPTNO), whole-plant fungicide test; details: 200 ppm on foliage, one-day protectant test; for pest or weed control at 200 ppm: Parastagonospora nodorum, foliar, 24 h, read-out: LEPTNO percent control of disease
# Phytophthora infestans = assay: whole plant or invertebrate; details: for pest or weed control at 200 ppm / pest or weed control at 100 ppm: Phytophthora infestans, in Solanum lycopersicum, 24 h; for pest or weed control at 200 ppm: foliar, read-out: PHYTIN percent control of disease, 200 ppm on foliage, tomato, one-day protectant test; for pest or weed control at 100 ppm: read-out: PHYTIN percent control of disease, 100 ppm (footnote a), tomato, one-day protectant test
# Colletotricum lagenarium = assay: Cucumber Anthracnose (COLLLA), whole-plant fungicide test; details: one-day protectant test; for pest or weed control at 200 ppm / pest or weed control at 100 ppm: Cucumis sativus, 24 h, read-out: COLLLA percent control of disease; for pest or weed control at 200 ppm: foliar; for pest or weed control at 100 ppm: 100 ppm (footnote a)
# [1] = test system: Puccinia recondita tritici; assay: Leaf Rust of Wheat (PUCCRT), whole-plant fungicide test; details: one-day protectant test; for pest or weed control at 200 ppm / pest or weed control at 100 ppm: Puccinia recondita, 24 h, read-out: PUCCRT percent control of disease; for pest or weed control at 200 ppm: foliar; for pest or weed control at 100 ppm: 100 ppm (footnote a)
# [2] = test system: Erysiphe graminis f. sp. tritici; assay: Powdery Mildew of Wheat (ERYSGT), whole-plant fungicide test; details: Blumeria graminis, 24 h, one-day protectant test, read-out: ERYSGT percent control of disease; for pest or weed control at 200 ppm: foliar, 200 ppm on foliage; for pest or weed control at 100 ppm: 100 ppm (footnote a)
# Magnaporthe grisea = assay: whole plant or invertebrate; details: for pest or weed control at 200 ppm: Pyricularia oryzae, in Oryza sativa, foliar, 24 h, read-out: PYRIOR percent control of disease, 200 ppm on foliage, rice, one-day protectant test
# Septoria tritici = assay: Speckled Leaf Blotch of Wheat (SEPTTR), whole-plant fungicide test; details: Zymoseptoria tritici, foliar, 24 h, 200 ppm on foliage, one-day protectant test, read-out: SEPTTR percent control of disease
# Erysiphe cichoracaerum = assay: Cucumber Powdery Mildew (ERYSCI), whole-plant fungicide test; details: Erysiphe, foliar, 24 h, 200 ppm on foliage, one-day protectant test, read-out: ERYSCI percent control of disease
SMILES,pest or weed control at 200 ppm (Cochliobolus sativus),LEPTNO percent control of disease (Leptosphaeria nodorum),"PHYTIN percent control of disease (Phytophthora infestans; 200 ppm on foliage, tomato, one-day protectant test)",COLLLA percent control of disease (Colletotricum lagenarium; 200 ppm on foliage),PUCCRT percent control of disease ([1]; 200 ppm on foliage),pest or weed control at 200 ppm [2],"PYRIOR percent control of disease (Magnaporthe grisea; 200 ppm on foliage, rice, one-day protectant test)",pest or weed control at 200 ppm (Leptosphaeria nodorum),pest or weed control at 200 ppm (Phytophthora infestans),pest or weed control at 200 ppm (Septoria tritici),pest or weed control at 200 ppm (Colletotricum lagenarium; 200 ppm on foliage),pest or weed control at 200 ppm ([1]; 200 ppm on foliage),pest or weed control at 200 ppm (Magnaporthe grisea),pest or weed control at 200 ppm (Erysiphe cichoracaerum),pest or weed control at 100 ppm [2],pest or weed control at 100 ppm (Phytophthora infestans),pest or weed control at 100 ppm (Colletotricum lagenarium),pest or weed control at 100 ppm [1]
"CC(C)c1ccc(C(C)Nc2ncnc3scc(Cl)c23)cc1 (stereo not shown) [Compound 1, (5-Chlorothieno[2,3-d]pyrimidin-4-yl)-[1-(4-isopropylphenyl)ethyl]amine]",0 to 49%,*** (*** is 80-100 percent control of disease),** (** is 50-79 percent control of disease),* (* is 0-49 percent control of disease),*** (*** is 80-100 percent control of disease),80 to 100%,*** (*** is 80-100 percent control of disease),,,,,,,,,,,
CC(Nc1ncnc2scc(Cl)c12)c1ccc(OCc2ccccc2)cc1 (stereo not shown) [Compound 2],0 to 49%,,,,,80 to 100%,,80 to 100%,80 to 100%,80 to 100%,0 to 49%,80 to 100%,80 to 100%,,,,,
Clc1csc2ncnc(NCCc3ccc(OCc4ccccc4)cc3)c12 [Compound 3],0 to 49%,,,,,80 to 100%,,80 to 100%,80 to 100%,80 to 100%,0 to 49%,80 to 100%,80 to 100%,,,,,
CC(Nc1ncnc2scc(Cl)c12)c1ccc(OCc2ccc(OC(F)(F)F)cc2)cc1 (stereo not shown) [Compound 5],,,,,,50 to 79%,,50 to 79%,,80 to 100%,0 to 49%,80 to 100%,50 to 79%,80 to 100%,,,,
FC(F)(F)Oc1ccc(COc2ccc(CCNc3ncnc4scc(Cl)c34)cc2)cc1 [Compound 6],,,,,,0 to 49%,,50 to 79%,,50 to 79%,,80 to 100%,50 to 79%,80 to 100%,,,,
Clc1csc2ncnc(NC3CCc4ccccc43)c12 (stereo not shown) [Compound 8],,,,,,0 to 49%,,0 to 49%,0 to 49%,0 to 49%,0 to 49%,50 to 79%,50 to 79%,0 to 49%,,,,
Clc1csc2ncnc(NC3CCCc4ccccc43)c12 (stereo not shown) [Compound 10],,,,,,0 to 49%,,0 to 49%,0 to 49%,0 to 49%,0 to 49%,0 to 49%,50 to 79%,0 to 49%,,,,
CC(Nc1ncnc2scc(Cl)c12)c1ccc(Cl)nc1 (stereo not shown) [Compound 28],0 to 49%,,,,,0 to 49%,,80 to 100%,,80 to 100%,,80 to 100%,80 to 100%,,,,,
CC(COc1cccc(Cl)n1)Nc1ncnc2scc(Cl)c12 (stereo not shown) [Compound 57],0 to 49%,,,,,,,0 to 49%,0 to 49%,80 to 100%,0 to 49%,80 to 100%,80 to 100%,50 to 79%,,,,
CC(Nc1ncnc2scc(Cl)c12)c1ccc(NC=O)cc1 (stereo not shown) [Compound 58],0 to 49%,,,,,,,0 to 49%,0 to 49%,50 to 79%,50 to 79%,80 to 100%,80 to 100%,0 to 49%,,,,
CC(=O)Nc1ccc(C(C)Nc2ncnc3scc(Cl)c23)cc1 (stereo not shown) [Compound 59],0 to 49%,,,,,,,0 to 49%,0 to 49%,50 to 79%,0 to 49%,80 to 100%,80 to 100%,50 to 79%,,,,
CC(Nc1ncnc2scc(Br)c12)c1ccc(F)nc1 (stereo not shown) [Compound 60],0 to 49%,,,,,,,0 to 49%,0 to 49%,0 to 49%,80 to 100%,80 to 100%,80 to 100%,80 to 100%,,,,
CC(Nc1ncnc2scc(Cl)c12)c1ccc2c(c1)OCO2 (stereo not shown) [Compound 61],50 to 79%,,,,,,,80 to 100%,0 to 49%,50 to 79%,0 to 49%,80 to 100%,50 to 79%,80 to 100%,,,,
COCC(Nc1ncnc2scc(Cl)c12)c1ccccc1 (stereo not shown) [Compound 62],0 to 49%,,,,,,,0 to 49%,0 to 49%,50 to 79%,0 to 49%,80 to 100%,80 to 100%,80 to 100%,,,,
COc1ccc(C(C)Nc2ncnc3scc(Cl)c23)cc1C (stereo not shown) [Compound 63],,,,,,,,50 to 79%,50 to 79%,,0 to 49%,80 to 100%,80 to 100%,80 to 100%,80 to 100%,,,
Clc1ccc(CCNc2ncnc3scc(Cl)c23)cn1 [Compound 65],,,,,,,,0 to 49%,80 to 100%,,0 to 49%,80 to 100%,0 to 49%,80 to 100%,0 to 49%,,,
COc1ccc(C(C)Nc2ncnc3scc(Cl)c23)cc1F (stereo not shown) [Compound 66],,,,,,,,0 to 49%,50 to 79%,,0 to 49%,80 to 100%,80 to 100%,80 to 100%,80 to 100%,,,
"COc1ccc(C(C)Nc2ncnc3scc(F)c23)cc1 (stereo not shown) [Compound 76, (5-Fluorothieno[2,3-d]pyrimidin-4-yl)-[1-(4-methoxyphenyl)ethyl]amine]",,,,,,,,,,,,,,,0 to 49%,80 to 100%,50 to 79%,80 to 100%
COc1ccc(C(C)Nc2ncnc3scc(F)c23)cn1 (stereo not shown) [Compound 77],,,,,,,,,,,,,,,0 to 49%,80 to 100%,50 to 79%,80 to 100%
CC(Nc1ncnc2scc(F)c12)c1ccc(OCC(F)(F)F)cc1 (stereo not shown) [Compound 78],,,,,,,,,,,,,,,80 to 100%,80 to 100%,80 to 100%,80 to 100%
